Measured values published in patent US12427133B2, “Combination therapies comprising schweinfurthin compounds for treating cancer” (The Penn State Research Foundation, priority 2018, dated 2025).

Key:
[1] = Tolerability / maximum tolerated dosage; details: in vivo
Procedure: TTI-7106 is used for these experiments near the maximum tolerated dosage (MTD) of 40 mg/kg. […] TTI-7106 is authenticated in batches based on the NMR spectroscopy and mass spectrometry. All experiments are carried out on equal groups of male and female mice.

B16.F10 tumors = experiment: In vivo tumor growth, survival and regression in the B16.F10 melanoma model with anti-PD-1 therapy; design: species or system C57BL/6J mice
Procedure: Groups of 8-week old C57BL/6J female mice were inoculated with 1×10^5 freshly cultured B16.F10 tumor cells subcutaneously in the left flank. Mice were monitored for the development of tumors and when palpable were randomized into groups. Mice received αPD-1 (clone RMP1-14; BioXCell) or control rat IgG (Sigma) at 200 μg/day intraperitoneally in a volume of 200 μl PBS twice per week for 3 weeks. Mice received daily TTI-4242 or TTI-3114 at 30 mg/kg/day or vehicle only for 5 consecutive days in a total volume of 100 μL. Tumors were measured with digital calipers and the tumor volume calculated as (length×width^2)/2. Mice were euthanized when the tumor volume exceeded 1500 mm^3, developed ascites or necrosis, or when mice became lethargic.
(§1) Differences in tumor growth curves were evaluated by linear mixed models for longitudinal analysis and Kaplan-Meier survival curves were evaluated by log rank test. Differences in calreticulin expression were determined by two-way ANOVA with Bonferroni post-test. All data were analyzed using Graphpad Prism (version 7) or SAS (version 9.4) software.

B16.F10 melanoma cells = experiment: Surface calreticulin expression (immunogenic cell death) by flow cytometry; type: cell-based, mouse (C57BL/6); details: 24 hours of treatment
Procedure: B16.F10 melanoma cells were plated at 1.5-2.0×10^5 cells per well in 24-well plates in RPMI-1640 medium containing standard supplements and 10% fetal bovine serum (FBS) and incubated overnight at 37° C., 5% CO2. Compounds solubilized in dimethyl sulfoxide (DMSO) were added at the indicated concentrations and incubated for a further 24 hours at 37° C., 5% CO2. Control wells were treated with similar dilutions of DMSO. Cells were trypsinized and washed with FACS buffer (2% FBS+0.1% NaN3 in PBS) and seeded at 1-2×10^5 per well in 96-well round-bottom plates. Cells were stained with rabbit anti-calreticulin polyclonal antibody (1:100, Abcam ab2907) in FACS buffer for 30 minutes at 4° C. Following two washes, cells were labeled with goat anti-rabbit Alexa Fluor 488 (1:500, Thermo Fisher A11070) in FACS buffer for 30 minutes at 4° C. Cells were washed twice and labeled with 7-aminoactinomyosin D in order to exclude non-viable cells. Samples were immediately run on a BD LSR Fortessa flow cytometer and the data analyzed using FlowJo software.
as §1

| Structure (SMILES) | maximum tolerated dosage (MTD) [1] | toxicity ([1]; 30 mg/kg) | tumors / mice showing initial tumor regression (B16.F10 tumors; during the period of schweinfurthin administration) [%] | tumor growth (rate / delay) (B16.F10 tumors; established s.c. B16.F10 tumors, schweinfurthin 30 mg/kg/day for 5 consecutive days, αPD-1 200 μg i.p. twice per week for 3 weeks) | concentration at which high levels of surface calreticulin expression are induced (B16.F10 melanoma cells) | induction of surface calreticulin (B16.F10 melanoma cells; flow cytometry) | MTD ([1]; both sexes, mouse) [mg/kg] |
| --- | --- | --- | --- | --- | --- | --- | --- |
| COc1cc(/C=C/c2cc(O)c3c(c2)C[C@@H]2C(C)(C)[C@H](O)CC[C@@]2(C)O3)cc2c1ccn2C [TTI-4242] | nearly identical MTD | low toxicity | 50 | neither αPD-1 alone (FIG. 2C) nor TTI-4242 alone (FIG. 2D) impacted tumor growth rate | below 2 nM | induced surface calreticulin | – |
| COc1cc(/C=C/c2cc(O)c3c(c2)C[C@@H]2C(C)(C)[C@H](O)CC[C@@]2(C)O3)cc(O)c1/C=C/c1c(C)noc1C [TTI-7106] | – | – | – | – | – | – | 40 |
